# Key:
# [1] = timolol drug release from ocular device in Unisol 4 buffer, UV spectroscopy; assay type: physicochemical; details: Example 11 polymer matrix with dissolved timolol free base; release study 90 days, 37° C., Unisol 4 buffer (FIG. 16)
# Experimental: The following details the method utilized to monitor timolol drug release from an ocular device of this example. Solutions of timolol maleate, in a concentration range of 5 ppm to 1,000 ppm, were prepared in Unisol® 4 buffer (Unisol® 4 is a preservative-free pH-balanced saline solution manufactured by Alcon Laboratories). A UV scanning spectrophotometer was utilized to generate a calibration curve of peak absorbance (λmax=294 nm) versus concentration, in gm/100 ml, of timolol maleate. A calibration curve for timolol free base was then generated. A device weighing between 100 and 150 mg was placed in a 4 ml vial. To the vial was added 2.0 ml of Unisol® 4 buffer. After 24 hours at 37° C., the sample was removed and placed in another 4 ml vial and covered with 2.0 ml of fresh Unisol® 4 buffer. The 24-hour release vial was capped, labeled and held for analysis. This procedure was repeated four more times to obtain 1-, 2-, 3-, 4- and 5-day release data. The sampling interval was then expanded to every 3 to 5 days and so on. The release study was carried out for a total of 90 days. The drug release samples were analyzed by UV spectroscopy and absorbance readings converted to weight of drug via the calibration curve. A plot of cumulative weight, in micrograms, of drug released versus time was generated.
# [2] = ciprofloxacin drug release from ocular device in Purilens Plus buffer, UV spectroscopy; assay type: physicochemical
# Experimental: The following details the method utilized to monitor ciprofloxacin drug release from an ocular device of this example. Solutions of ciprofloxacin, in a concentration range of 5 ppm to 1,000 ppm, were prepared in Purilens Plus buffer (Purilens Plus is a preservative-free pH-balanced saline solution manufactured by The Lifestyle Company). A UV scanning spectrophotometer was utilized to generate a calibration curve of peak absorbance (λmax=272 nm) versus concentration, in gm/100 ml, of ciprofloxacin.
# A device from this example weighing between 100 and 150 mg was placed in a 4 ml vial. To the vial was added 3.0 ml of Purilens Plus buffer. After 24 hours at 37° C., the sample was removed and placed in another 4 ml vial and covered with 3.0 ml of fresh Purilens Plus buffer. The 24-hour release vial was capped, labeled and held for analysis. This procedure was repeated four more times to obtain 1-, 2-, 3-, 4- and 5-day release data. The sampling interval was then expanded to every 3 to 5 days and so on. The release study was carried out for a total of 60 days.
# The drug release samples were analyzed by UV spectroscopy and absorbance readings converted to weight of drug via the calibration curve.
Structure (SMILES),timolol release from device [1],"amount of ciprofloxacin released ([2]; 60 days release study, 37° C., Purilens Plus buffer, Example 12 hydrogel device, initial loading about 8.67 mg)","ciprofloxacin released, share of initial loading ([2]; in the 60 days, 4.74 mg of about 8.67 mg loading)"
CC(C)(C)NC[C@H](O)COc1nsnc1N1CCOCC1 [timolol],releases timolol in a controlled manner over several months,–,–
O=C(O)c1cn(C2CC2)c2cc(N3CCNCC3)c(F)cc2c1=O [ciprofloxacin],–,4.74 mg,55%

# From patent publication US20100233241A1, “OPHTHALMIC DRUG DELIVERY SYSTEM AND APPLICATIONS” (VISTA SCIENTIFIC LLC, priority 2009, published 2010)
